This is an account of results in patent US9012659B2, “3-(indolyl)- or 3-(azaindolyl)-4-arylmaleimide compounds and their use in tumor treatment” (Johannes Gutenberg—Universitat Mainz, priority 2009, dated 2015).

Each structure is given as a SMILES string.

In one data set the test system is human HT-29 cancer cells. The data set can be described thus: Nicoletti apoptosis assay by cell cycle analysis (sub-G1 fraction). The format is cell-based. The following applies: combination: compound plus Irinotecan 1.18 μM, agent-free control 3.4 ± 0.9%. The method, then:
Cancer cells were transferred to 12-well flat-bottomed plates. Cell suspensions (1 ml) containing 1.5×10^5 viable cells were plated into each well and incubated over night before exposure with various concentrations of agents. Cells were then incubated in 1 ml medium with various concentrations of single applied moguntinones, irinotecan alone, or with the combinations of moguntinones with irinotecan or topotecan at 37° C. with 5% CO2.
After incubation cells were washed with PBS, trypsinizated, palleted and mixed with propidium-iodide-buffer (containing 0.1% sodium citrate, 0.1% triton X-100, […] propidium-iodide) and incubated for 1 hour at 4° C. Cell cycle sub-G1-fraction analysis was performed as described previously^23 using a FACS cytometer (BD FACS Calibur™, BD Biosciences, Heidelberg, Germany). Each experiment was done in triplicate.
All cells were maintained at 37° C. in an incubator under an atmosphere containing 5% CO2. After incubation the cells were washed with PBS, trypsinized, pelleted and mixed with PI buffer (containing 0.1% sodium citrate, 0.1% triton X-100, […] propidium iodide (PI)) and incubated for 1 hour at 4° C. Cell cycle sub-G1 fraction analysis was performed as described previously (Nicoletti, I. et al. (1991) J. Immunol. Methods 139, 271-279) using a flow cytometer (BD FACS Calibur™, BD Biosciences, Heidelberg, Germany). […]

For data set [1], the system named is HT-29 human colon adenocarcinoma cells. The data set can be described thus: Evaluation of antiproliferative effect (MTT assay). Type of data set: cell-based. Particulars: 72 h, treatment for 3 days, untreated HT-29 cells: 100%, read-out: Decrease of HT-29 colon cancer cell viability (%). As for the experimental part: Cell suspensions (200 μl) containing 10,000 viable cells were plated into each well and incubated over night before exposure with various concentrations of agents. Cells were then incubated with 100 μl of different concentrations of compounds for 3 days at 37° C. with 5% CO2. At the end of the time point (3 days), 10 μl/well of MTT stock solution (5 mg/ml) (Biomol, Germany) were added. […] Each experiment was done in triplicate. […]
The antitumor efficacy of the compounds of the invention was examined against HT-29 human colon adenocarcinoma cells. […] The compound of example 1 of WO 2006/061212 was used as comparative compound.
Background: Tetrazolium dyes change colour on reduction, which living cells bring about.

By melting point is commonly meant the temperature, or range, at which the solid turns liquid. As for `COc1cc(C2=C(c3c[nH]c4ccc(F)cc34)C(=O)NC2=O)cc(OC)c1OC` [Example 10, 3-(5-Fluoro-1H-indol-3-yl)-4-(3,4,5-trimethoxyphenyl)-maleinimide], the melting point was in the range of 232 to 233 °C.

The viability is the share of living cells, or the viability signal relative to a control. The molecule `COc1cc(C2=C(c3cn(CCN)c4ccccc34)C(=O)NC2=O)cc(OC)c1OC.Cl` [Example 1, 3-(1-[2-Ammonioethyl]-1H-indol-3-yl)-4-(3,4,5-trimethoxyphenyl)-maleinimide-chloride] came in with a melting point of 277.1 °C. Further, the “Induction of apoptosis, combination compound plus irinotecan” value in the data set on human HT-29 cancer cells worked out at 51.00 ± 0.56%. Moreover, in data set [1], the viability at 2.6 µM was determined as 32.3 ± 1.07%, the viability at 7.9 µM stood at 29.3 ± 2.09%, the viability at 26 µM turned out to be 12.5 ± 0.39% and the viability at 52 µM is 8.95 ± 0.65%.

In turn, `COc1cc(C2=C(c3c[nH]c4cccnc34)C(=O)NC2=O)cc(OC)c1OC` [Example 12, 3-(4-Azaindol-3-yl)-4-(3,4,5-trimethoxyphenyl)-1H-pyrrol-2,5-dione] showed a melting point of 274 to 275 °C.

For `COc1cc(C2=C(c3cn(CCO)c4ccccc34)C(=O)NC2=O)cc(OC)c1OC` [Example 3, 3-(1-[2-Hydroxyethyl]-1H-indol-3-yl)-4-(3,4,5-trimethoxyphenyl)-maleinimide], the melting point was in the range of 195 to 196 °C. In addition, in data set [1], the viability at 2.6 µM was found to be 68.8 ± 2.48%, the viability at 7.9 µM came to 70.2 ± 3.72%, the viability at 26 µM worked out at 45.7 ± 2.18% and the viability at 52 µM stood at 28.7 ± 0.55%.

Molecule `COc1cc(C2=C(c3cn(CCCO)c4ccccc34)C(=O)NC2=O)cc(OC)c1OC` [Example 4, 3-(1-[3-Hydroxypropyl]-1H-indol-3-yl)-4-(3,4,5-trimethoxyphenyl)-maleinimide] showed a melting point of 160 °C. For the same molecule, in data set [1], the viability at 2.6 µM is 37.9 ± 1.3%, the viability at 7.9 µM came to 34.7 ± 0.78%, the viability at 26 µM turned out to be 27.7 ± 1.23% and the viability at 52 µM came out at 25.4 ± 2.26%.

`COc1cc(C2=C(c3cn(CCCN(C)C)c4ccccc34)C(=O)NC2=O)cc(OC)c1OC` [Example 6, 3-{1-[3-(Dimethylamino)propyl]-1H-indol-3-yl}-4-(3,4,5-trimethoxyphenyl)maleinimide] yielded a melting point of 187 to 188 °C. In data set [1], the viability at 2.6 µM worked out at 39.3 ± 2.6%, the viability at 7.9 µM was determined as 38.5 ± 2.43%, the viability at 26 µM came to 15.8 ± 1.35% and the viability at 52 µM is 19.4 ± 1.32%.

As for `COc1cc(C2=C(c3c[nH]c4ccc(Br)cc34)C(=O)NC2=O)cc(OC)c1OC` [Example 11, 3-(5-Bromo-1H-indol-3-yl)-4-(3,4,5-trimethoxyphenyl)-maleinimide], the melting point lay within 259 to 262 °C.

`COc1cc(C2=C(c3cn(CCN(C)C)c4ccccc34)C(=O)NC2=O)cc(OC)c1OC` [Example 5, 3-{1-[2-(Dimethylamino)ethyl]-1H-indol-3-yl}-4-(3,4,5-trimethoxyphenyl)-maleinimide] displayed a melting point of 184 to 185 °C. For the same molecule, in data set [1], the viability at 2.6 µM is 68.5 ± 8.69%, the viability at 7.9 µM turned out to be 52.6 ± 0.53%, the viability at 26 µM worked out at 32.2 ± 0.9% and the viability at 52 µM is 15 ± 0.9%.

`COc1cc(C2=C(c3cn(CCCN4CCN(C)CC4)c4ccccc34)C(=O)NC2=O)cc(OC)c1OC` [Example 9, 3-{1-[3-(4-Methylhexahydro-1-pyrazindiylium)propyl]-1H-indol-3-yl}-4-(3,4,5-trimethoxyphenyl)-maleinimide dichloride] returned a melting point of 225 to 226 °C. Also, in data set [1], the viability at 2.6 µM was found to be 66.5 ± 3.1%, the viability at 7.9 µM stood at 49.9 ± 1.32%, the viability at 26 µM is 22.6 ± 1.16% and the viability at 52 µM came to 15.3 ± 1.21%.

In turn, `COc1cc(C2=C(c3cn(CCN4CCOCC4)c4ccccc34)C(=O)NC2=O)cc(OC)c1OC` [Example 8, 3-{1-(2-Morpholinoethyl)-1H-indol-3-yl}-4-(3,4,5-trimethoxyphenyl)-maleinimide] registered a melting point of 238 to 239 °C. Besides, in data set [1], the viability at 2.6 µM worked out at 81.1 ± 2.99%, the viability at 7.9 µM was determined as 84.1 ± 2.18%, the viability at 26 µM came to 53.39 ± 0.1% and the viability at 52 µM came to 39.3 ± 1.31%.

For the molecule `COc1cc(C2=C(c3cn(CCCN)c4ccccc34)C(=O)NC2=O)cc(OC)c1OC.Cl` [Example 2, 3-(1-[3-Ammoniopropyl]-1H-indol-3-yl)-4-(3,4,5-trimethoxyphenyl)-maleinimide-chloride], the melting point was in the range of 274 to 275 °C. For the same molecule, in data set [1], the viability at 2.6 µM was 45.8 ± 3.25%, the viability at 7.9 µM came to 36.4 ± 1.77%, the viability at 26 µM is 17.65 ± 0.13% and the viability at 52 µM was 6.68 ± 0.29%.

For `COc1cc(C2=C(c3cn(CCN4CCCCC4)c4ccccc34)C(=O)NC2=O)cc(OC)c1OC` [Example 7, 3-{1-[2-(Piperidin-1-yl)ethyl]-1H-indol-3-yl}-4-(3,4,5-trimethoxyphenyl)-maleinimide], the melting point lay in the range of 179 to 180 °C. In data set [1], the viability at 2.6 µM stood at 86.5 ± 2.16%, the viability at 7.9 µM stood at 56.9 ± 3.02%, the viability at 26 µM was 20.1 ± 1.36% and the viability at 52 µM stood at 24.3 ± 0.98%.
